Laboratory results: patent US10918623B2, “Methods of treating influenza” (Biotron Limited, priority 2017, dated 2021)

What was measured:
Assay type in all cases: cell-based
Influenza B = tested on: Influenza B
[1] = tested on: PR8 4C [A30T] M2 mutant amantadine resistant influenza A virus
[2] = tested on: SHIV-1M2 (ion channel sequence of influenza A M2)

Cn1cc(-c2cccc3cc(C(=O)NC(=N)N)ccc23)cn1 [BIT225, N-carbamimidoyl-5-(1-methyl-1H-pyrazol-4-yl)-2-naphthamide]
Comments (Influenza B): Active | EC50 [1]: ~10 µM | EC90 [1]: 18 µM | Virus released into the culture supernatant as measured by viral p27 protein [2]: reduced virus released

NC12CC3CC(CC(C3)C1)C2 [amantadine, reference compound]
Shift in drug sensitivity caused by the A30T mutation in M2 [1]: large shift in drug sensitivity
